Measured values reported in BindingDB's records for doi:10.1016/j.ejmech.2009.11.010 (Chinese Academy of Sciences, 2010).

biological target: T1, Cathepsin K (Homo sapiens, UniProt P43235); assay: Inhibition of human cathepsin K
T1 sequence (P43235 whole entry): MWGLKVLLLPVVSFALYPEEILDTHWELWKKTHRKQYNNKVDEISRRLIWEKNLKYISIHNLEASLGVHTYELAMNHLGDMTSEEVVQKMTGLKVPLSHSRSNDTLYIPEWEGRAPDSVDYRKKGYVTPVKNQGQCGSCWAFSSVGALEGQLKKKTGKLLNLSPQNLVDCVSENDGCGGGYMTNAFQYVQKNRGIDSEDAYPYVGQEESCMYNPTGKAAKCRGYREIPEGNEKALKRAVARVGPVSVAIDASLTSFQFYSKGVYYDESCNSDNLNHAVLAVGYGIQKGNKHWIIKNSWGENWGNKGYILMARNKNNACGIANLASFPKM

| IC50 [nM] | SMILES |
| --- | --- |
| 0.129 | CCCC[C@H](NC(=O)O[C@H](Cc1nnc(-c2ccc(C(F)(F)F)cc2)o1)C(C)(C)C)C(=O)C(=O)NN1CCOC1=O [(1R)-2,2-DIMETHYL-1-({5-[4-(TRIFLUOROMETHYL)PHENYL]-1,3,4-OXADIAZOL-2-YL}METHYL)PROPYL (1S)-1-{OXO[(2-OXO-1,3-OXAZOLIDIN-3-YL)AMINO]ACETYL}PENTYLCARBAMATE] |
| 2.82 | CCCC[C@H](NC(=O)O[C@H](Cc1nnc(-c2ccc(F)cc2)o1)C(C)(C)C)C(=O)C(=O)NCc1cccnc1 [(R)-1-(5-(4-fluorophenyl)-1,3,4-oxadiazol-2-yl)-3,3-dimethylbutan-2-yl(S)-1,2-dioxo-1-(pyridin-3-ylmethylamino)heptan-3-ylcarbamate] |
| 0.24 | CCCC[C@H](NC(=O)O[C@H](Cc1nnc(-c2ccccc2)o1)C(C)(C)C)C(=O)C(=O)N[C@H](C)c1ccccc1 [(R)-3,3-dimethyl-1-(5-phenyl-1,3,4-oxadiazol-2-yl)butan-2-yl(S)-1,2-dioxo-1-((R)-1-phenylethylamino)heptan-3-ylcarbamate] |
| 0.339 | CCCC[C@H](NC(=O)O[C@H](CN1CCN(c2ccc(C(F)(F)F)cc2)C1=O)C(C)(C)C)C(=O)C(=O)Nc1ccn[nH]1 [(S)-3,3-dimethyl-1-(2-oxo-3-(4-(trifluoromethyl)phenyl)imidazolidin-1-yl)butan-2-yl(S)-1-(1H-pyrazol-5-ylamino)-1,2-dioxoheptan-3-ylcarbamate] |
| 0.372 | CCCC[C@H](NC(=O)O[C@H](Cc1nnc(-c2ccc(F)cc2)o1)C(C)(C)C)C(=O)C(=O)N[C@H](C)c1ccccc1 [[(S)-1-(1-Phenyl-ethylaminooxalyl)-pentyl]-carbamic acid (R)-1-[5-(4-fluoro-phenyl)-[1,3,4]oxadiazol-2-ylmethyl]-2,2-dimethyl-propyl ester] |
| 0.407 | CCCC[C@H](NC(=O)O[C@H](Cc1nnc(-c2ccc(C(F)(F)F)cc2)o1)C(C)(C)C)C(=O)C(=O)N[C@H](C)c1ccccc1 [[(S)-1-(1-Phenyl-ethylaminooxalyl)-pentyl]-carbamic acid (R)-2,2-dimethyl-1-[5-(4-trifluoromethyl-phenyl)-[1,3,4]oxadiazol-2-ylmethyl]-propyl ester] |
| 457 | CCCC[C@H](NC(=O)O[C@@H](Cc1nnc(-c2ccccc2)o1)C(C)(C)C)C(=O)C(=O)N[C@H](C)c1ccccc1 [[(S)-1-(1-Phenyl-ethylaminooxalyl)-pentyl]-carbamic acid (S)-2,2-dimethyl-1-(5-phenyl-[1,3,4]oxadiazol-2-ylmethyl)-propyl ester] |
| 0.0288 | CCCC[C@H](NC(=O)O[C@H](Cc1nnc(-c2ccc(C(F)(F)F)cc2)o1)C(C)(C)C)C(=O)C(=O)Nc1ccn[nH]1 [[(S)-1-(2H-Pyrazol-3-ylaminooxalyl)-pentyl]-carbamic acid (R)-2,2-dimethyl-1-[5-(4-trifluoromethyl-phenyl)-[1,3,4]oxadiazol-2-ylmethyl]-propyl ester] |
| 5.75 | CCCC[C@H](NC(=O)O[C@H](Cn1cnc(-c2ccc(C(F)(F)F)cc2)c1)C(C)(C)C)C(=O)C(=O)Nc1nccs1 [[(S)-1-(Thiazol-2-ylaminooxalyl)-pentyl]-carbamic acid (S)-2,2-dimethyl-1-[4-(4-trifluoromethyl-phenyl)-imidazol-1-ylmethyl]-propyl ester] |
